Reference: ChEMBL document CHEMBL1201862, “PubChem BioAssay data set” (2004)
Where “and” joins values, the source holds several entries; their conditions need not be identical. Identical values can stand only once.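 Briefly, cells in 96-well plates were exposed to five compound concentrations for 48 h, and endpoints were estimated by linear interpolation. Here, GI50 denotes the concentration required for 50% inhibition of growth.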 Calls of active or inactive are those of the source. No stated cut-off is given here; in the data, active = GI50 up to about 1.1 µM and inactive = higher.

Tests used:
Test in all cases: NCI tumour cell line growth inhibition, 48 h
A549 = tested on: A549
CCRF-CEM = tested on: CCRF-CEM
COLO 205 = tested on: COLO 205
HCC 2998 = tested on: HCC 2998
HCT-116 = tested on: HCT-116
KM12 = tested on: KM12
NCI-H23 = tested on: NCI-H23
OVCAR-5 = tested on: OVCAR-5
SNB-19 = tested on: SNB-19
UACC-257 = tested on: UACC-257
BT-549 = tested on: BT-549
DU-145 = tested on: DU-145
MCF7 = tested on: MCF7
MDA-MB-231 = tested on: MDA-MB-231
SR = tested on: SR
T47D = tested on: T47D
A498 = tested on: A498
PC-3 = tested on: PC-3

| Structure (SMILES) | GI50 (A549) | GI50 (CCRF-CEM) | GI50 (COLO 205) | GI50 (HCC 2998) | GI50 (HCT-116) | GI50 (KM12) | GI50 (NCI-H23) | GI50 (OVCAR-5) | GI50 (SNB-19) | GI50 (UACC-257) | GI50 (BT-549) | GI50 (DU-145) | GI50 (MCF7) | GI50 (MDA-MB-231) | GI50 (SR) | GI50 (T47D) | GI50 (A498) | GI50 (PC-3) |
| --- | --- | --- | --- | --- | --- | --- | --- | --- | --- | --- | --- | --- | --- | --- | --- | --- | --- | --- |
| CCCCCCC(=O)C/C(=N/NC(N)=S)C(=O)NC1C2CC3CC(C2)CC1C3 (stereo not drawn) | > 100 µM (inactive) | > 100 µM (inactive) | > 100 µM (inactive) | > 100 µM (inactive) | > 100 µM (inactive) | > 100 µM (inactive) | > 100 µM (inactive) | > 100 µM (inactive) | > 100 µM (inactive) | > 100 µM (inactive) | – | – | – | – | – | – | – | – |
| CN(C(=O)c1ccc(Cl)cc1)C(=S)N1CCN(c2ccccc2)CC1 | 89.1 µM (inactive) | 56.6 µM (inactive) | 50.9 µM (inactive) | > 100 µM (inactive) | – | 53.2 µM (inactive) | > 100 µM (inactive) | > 100 µM (inactive) | > 100 µM (inactive) | 71.4 µM (inactive) | > 100 µM (inactive) | > 100 µM (inactive) | 78.9 µM (inactive) | > 100 µM (inactive) | 35.2 µM (inactive) | > 100 µM (inactive) | – | – |
| FC(F)(F)c1nc2cc(SSc3cc4nc(C(F)(F)F)[nH]c4cc3Cl)c(Cl)cc2[nH]1 | > 100 µM (inactive) | – | 53.7 µM (inactive) | > 100 µM (inactive) | > 100 µM (inactive) | – | > 100 µM (inactive) | > 100 µM (inactive) | > 100 µM (inactive) | 93.1 µM (inactive) | > 100 µM (inactive) | > 100 µM (inactive) | 65.5 µM (inactive) | > 100 µM (inactive) | – | – | > 100 µM (inactive) | > 100 µM (inactive) |
| CCCCCCCC(=O)NS(=O)(=O)c1ccccc1 | > 100 µM (inactive) | > 100 µM (inactive) | > 100 µM (inactive) | > 100 µM (inactive) | > 100 µM (inactive) | > 100 µM (inactive) | > 100 µM (inactive) | – | > 100 µM (inactive) | – | > 100 µM (inactive) | > 100 µM (inactive) | – | > 100 µM (inactive) | > 100 µM (inactive) | > 100 µM (inactive) | > 100 µM (inactive) | > 100 µM (inactive) |
| Cc1ccc(Nc2n[nH]c(=S)s2)cc1 | > 100 µM (inactive) | > 100 µM (inactive) | > 100 µM (inactive) | > 100 µM (inactive) | > 100 µM (inactive) | 69 µM (inactive) | > 100 µM (inactive) | > 100 µM (inactive) | > 100 µM (inactive) | > 100 µM (inactive) | – | > 100 µM (inactive) | > 100 µM (inactive) | > 100 µM (inactive) | > 100 µM (inactive) | 96.6 µM (inactive) | > 100 µM (inactive) | > 100 µM (inactive) |
| CCN(CC)C(=O)N1CN(c2ccccc2)C2(CCN(CCCC3(c4ccc(F)cc4)OCCO3)CC2)C1=O | 29.3 µM (inactive) | 13.9 µM (inactive) | 3.13 µM (inactive) | 14.5 µM (inactive) | 11.7 µM (inactive) | 16.5 µM (inactive) | 16.1 µM (inactive) | > 10 µM (inactive) | 30.3 µM (inactive) | 12.4 µM (inactive) | 12.5 µM (inactive) | 12.2 µM (inactive) | 4.75 µM (inactive) | – | 11.6 µM (inactive) | 5.9 µM (inactive) | – | 17.5 µM (inactive) |
| CC1(C)OP(=O)(O)C=C1Sc1ccc([N+](=O)[O-])cc1[N+](=O)[O-] | > 100 µM (inactive) | – | > 100 µM (inactive) | > 100 µM (inactive) | > 100 µM (inactive) | > 100 µM (inactive) | > 100 µM (inactive) | > 100 µM (inactive) | > 100 µM (inactive) | > 100 µM (inactive) | – | > 100 µM (inactive) | > 100 µM (inactive) | – | > 100 µM (inactive) | > 100 µM (inactive) | > 100 µM (inactive) | > 100 µM (inactive) |
| COc1ccc2c(c1)C(=O)CCc1cc(OC)c(OC)c(OC)c1-2 | 0.0687 µM (active) | 0.0512 µM (active) | 0.0512 µM (active) | 0.0412 µM (active) | 0.0506 µM (active) | 0.0298 µM (active) | 0.024 µM (active) | 0.0783 µM (active) | 0.051 µM (active) | < 0.01 µM (active) | – | 0.0335 µM (active) | < 0.01 µM (active) | 0.166 µM (active) | 0.0354 µM (active) | – | 0.0504 µM (active) | 0.0474 µM (active) |
| O=c1[nH]c(=O)n(C2OC(CO)C(O)C2O)cc1OCCc1ccccc1 (stereo not drawn) | > 100 µM (inactive) | > 100 µM (inactive) | > 100 µM (inactive) | > 100 µM (inactive) | > 100 µM (inactive) | > 100 µM (inactive) | > 100 µM (inactive) | > 100 µM (inactive) | > 100 µM (inactive) | > 100 µM (inactive) | – | > 100 µM (inactive) | > 100 µM (inactive) | > 100 µM (inactive) | > 100 µM (inactive) | > 100 µM (inactive) | > 100 µM (inactive) | > 100 µM (inactive) |
| COc1ccc(-n2c(N)c(C#N)[nH]c2=O)cc1 | > 10 µM (inactive) | > 10 µM (inactive) | > 10 µM (inactive) | > 10 µM (inactive) | > 10 µM (inactive) | > 10 µM (inactive) | > 10 µM (inactive) | 3.5 µM (inactive) | > 10 µM (inactive) | > 10 µM (inactive) | – | > 10 µM (inactive) | – | > 10 µM (inactive) | > 10 µM (inactive) | > 10 µM (inactive) | > 10 µM (inactive) | > 10 µM (inactive) |
| CC(=O)Nc1ccc2cc(C)c(O)nc2n1 | > 100 µM (inactive) | > 100 µM (inactive) | > 100 µM (inactive) | – | > 100 µM (inactive) | > 100 µM (inactive) | > 100 µM (inactive) | > 100 µM (inactive) | > 100 µM (inactive) | > 100 µM (inactive) | > 100 µM (inactive) | > 100 µM (inactive) | – | 75.7 µM (inactive) | > 100 µM (inactive) | > 100 µM (inactive) | > 100 µM (inactive) | > 100 µM (inactive) |
| CCNc1cc2c(cc1O)CC[C@@H]1[C@@H]2CC[C@]2(C)[C@@H](O)CC[C@@H]12 | 2.32 µM (inactive) | 1.41 µM (inactive) | 14.4 µM (inactive) | 1.02 µM (active) | – | 9.04 µM (inactive) | 12.9 µM (inactive) | 20.3 µM (inactive) | 0.82 µM (active) | 11.8 µM (inactive) | 15.6 µM (inactive) | – | 8.43 µM (inactive) | 10.5 µM (inactive) | 1.31 µM (inactive) | 6.04 µM (inactive) | 1.7 µM (inactive) | 9.91 µM (inactive) |
| COc1cc(OC)nc(NC(=O)NS(=O)(=O)c2cccc3ncn(C)c(=O)c23)n1 | > 100 µM (inactive) | > 100 µM (inactive) | > 100 µM (inactive) | – | > 100 µM (inactive) | – | > 100 µM (inactive) | > 100 µM (inactive) | > 100 µM (inactive) | > 100 µM (inactive) | – | > 100 µM (inactive) | > 100 µM (inactive) | > 100 µM (inactive) | > 100 µM (inactive) | > 100 µM (inactive) | > 100 µM (inactive) | – |
| O=S(=O)(O)c1cc(/N=N/c2c(O)ccc3ccccc23)ccc1/C=C/c1ccc(/N=N/c2c(O)ccc3ccccc23)cc1S(=O)(=O)O | > 100 µM (inactive) | – | > 100 µM (inactive) | – | > 100 µM (inactive) | > 100 µM (inactive) | > 100 µM (inactive) | > 100 µM (inactive) | > 100 µM (inactive) | > 100 µM (inactive) | > 100 µM (inactive) | – | – | 40.3 µM (inactive) | – | > 100 µM (inactive) | – | > 100 µM (inactive) |
| CC(=O)O[C@H]1CC2C(C3CC[C@H](C(C)CCC(N)=O)[C@]31C)[C@H](OC(C)=O)C[C@@H]1CC3(CC[C@]21C)OOC1(CCC(C)CC1)OO3 (stereo partly drawn) | 1.24 µM (inactive) and 1.79 µM (inactive) | 1.52 µM (inactive) | 1.56 µM (inactive) | 2.06 µM (inactive) and 2.38 µM (inactive) | 1.94 µM (inactive) and 2.26 µM (inactive) | 1.98 µM (inactive) and 1.83 µM (inactive) | 1.74 µM (inactive) and 2.23 µM (inactive) | 2.09 µM (inactive) and 2.04 µM (inactive) | – | 5.37 µM (inactive) and 4.6 µM (inactive) | 2.11 µM (inactive) and 1.72 µM (inactive) | – | 2.04 µM (inactive) and 2.65 µM (inactive) | 2.21 µM (inactive) | 867 nM (active) and 1.47 µM (inactive) | 1.49 µM (inactive) and 2.01 µM (inactive) | 11.7 µM (inactive) and 14.3 µM (inactive) | 2.69 µM (inactive) |
| C=C1CC2(CCCC3(CC(=C)C(=O)O3)C2(C)C)OC1=O (stereo not drawn) | 13.8 µM (inactive) | 0.437 µM (active) | 2.21 µM (inactive) | – | 1.44 µM (inactive) | 8.11 µM (inactive) | 2.89 µM (inactive) | 1.58 µM (inactive) | 17.3 µM (inactive) | 1.85 µM (inactive) | 3.75 µM (inactive) | 3.73 µM (inactive) | 3.4 µM (inactive) | 4.95 µM (inactive) | – | 3.33 µM (inactive) | 21.4 µM (inactive) | 8.09 µM (inactive) |
| COc1cc(/C=C2/SC(c3ccccc3)N(c3ccccc3)C2=O)cc(OC)c1OC (stereo not drawn) | > 100 µM (inactive) | 10.6 µM (inactive) | 36.9 µM (inactive) | > 100 µM (inactive) | 15.7 µM (inactive) | 30.3 µM (inactive) | 42.5 µM (inactive) | > 100 µM (inactive) | > 100 µM (inactive) | 61.8 µM (inactive) | 29 µM (inactive) | > 100 µM (inactive) | 37.8 µM (inactive) | > 100 µM (inactive) | 14 µM (inactive) | 36.2 µM (inactive) | > 100 µM (inactive) | – |
